Laboratory results as given in patent US5439933A (priority 1993, dated 1995).
In brackets after ≈: the same amount, converted by molar mass. Read-outs that look alike come from different tables or passages of the source. Starred links: 1 amine or outer side, 2 acyl side, 3 side chain; linkers in the order of their positions; H or OH if unused. Positions of bridges follow the written chain, without caps; N, C: chain ends. Non-standard residues stand in square brackets, D forms with d. Residues, ends and D or L forms follow the SMILES beside them. Chains are numbered I, II in the order given. Actinocin(9to1) = Cc1c2oc3c(C)ccc(C(=O)[*:1])c3nc-2c(C(=O)[*:2])c(N)c1=O; NMeV = CN[C@H](C(=O)O)C(C)C; Sar = CNCC(=O)O

Columns and labels:
[1] = test system: SKVLB (multi-drug resistant subline of SKOV3); assay: cells; assay type: cell-based, Human; settings: for IC50: Homo sapiens, 48 hours, read-out: IC50 SKVLB; for IC50 / Fold-Resistance: Table 7; for IC50 / resistance of the multi-drug resistant cell line: SKVLB; for Fold-Resistance: SKVLB vs SKOV3, 2880 min
Saccharomyces cerevisae = assay: Antifungal agar dilution; assay type: cell-based; settings: Saccharomyces cerevisae; for IC50: Table 9
Protocol: (§1) The new scytophycins are also useful as antifungal agents. Antimicrobial activity was determined by the agar dilution method. Tolytoxin was dissolved in 95% ethanol for addition to cooled, molten agar. Nystatin was solubilized in DMSO and diluted in distilled water. Appropriate solvent controls were also prepared. Fungal cultures were grown on Saboraud dextrose agar. Assay plates were incubated for 48 hours post-inoculation. Yeasts and filamentous fungi were incubated at 25° C.
(§2) Activity was determined using the method described above for tolytoxin.

[2] = test system: Thielaviopsis paradoxa 1215; assay: Antifungal agar dilution; assay type: cell-based; settings: Thielaviopsis paradoxa 1215; for IC50: Table 9
Protocol: as §1, §2

Candida albicans A26 = assay: Antifungal agar dilution; assay type: cell-based
Protocol: as §1, §2

Sclerotium rofsii 2133 = assay: Antifungal agar dilution; assay type: cell-based; settings: Sclerotium rofsii 2133
Protocol: as §1, §2

[3] = test system: Phytophthora nicotianae H729; assay: Antifungal agar dilution; assay type: cell-based; settings: Phytophthora nicotianae H729
Protocol: as §1, §2

[4] = test system: Human ovarian carcinoma cells (SKOV3); assay: cells; assay type: cell-based; settings: SK-OV-3, Table 7, SKOV3, 48 hours, read-out: IC50 SKOV3
Protocol: Human ovarian carcinoma cells (SKOV3) and a subline made multi-drug resistant by slowly increasing vinblastine in the culture medium over the course of many passages (SKVLB) were grown in Earle's basal medium (BME) containing 10% fetal calf serum. The SKVLB cells were maintained in the presence of 1 µg/mL vinblastine. The multi-drug resistant cell line is resistant to adriamycin, vinblastine, actinomycin D, and colchicine.
Cell proliferation was estimated by measurement of protein content of the cultured cells, as described by Skehan et al. (1990). Cells were plated into 24-well plates at approximately 10% confluency in BME and were allowed to attach and recover for at least 24 hours. The cells were then treated with the scytophycins or appropriate control for 48 hours. After the incubation, the medium was removed from each well and cells fixed by addition of 10% (w/v) trichloroacetic acid (TCA) (4° C.). The cells were incubated at 4° C. for one hour and then washed five times with water to remove TCA. The TCA-fixed cells were then stained for 30 minutes with 0.4% (w/v) sulforhodamine B prepared in 1% acetic acid. Following the staining, the cell layers were washed four times with 1% acetic acid. The cell layer was dissolved in 10 mM unbuffered tris-hydroxymethylaminomethane base. Absorbance of the solution was determined at 564 nm. Antiproliferative activity is manifested as decreased production of cellular protein.

[5] = test system: LoVo human adenocarcinoma cells; assay: Cell proliferation assay (cell counts), LoVo; assay type: cell-based; settings: Table 6, read-out: IC50 LoVo
Protocol: (§3) Tolytoxin and the other new scytophycin compounds are potent anticancer and antifungal agents. The cytotoxicity of tolytoxin and other new scytophycin compounds was determined using a cell proliferation assay, which tested the effect of the compounds on increases in cell numbers.
(§4) Cell lines were grown in plastic dishes (Falcon) in Eagle's basal medium supplemented with 5% newborn calf serum (KB), Fisher's medium supplemented with 10% horse serum (L1210), Dulbecco's modified Eagle's medium supplemented with 5% heat-inactivated fetal calf serum (LoVo), minimal essential medium supplemented with 2% heat-inactivated chicken serum (HEp-2), RPMI-1640 supplemented with 10% heat-inactivated fetal calf serum (T-47D, COLO-201) or 20% heat-inactivated fetal calf serum (HL-60, KATO-III), or McCoy's 5A supplemented with 10% heat-inactivated fetal calf serum (HBL-100). All cell culture media were supplemented with 50 μg/ml gentamycin sulfate. The cultures were incubated at 37° C. in a humidified atmosphere containing 5% carbon dioxide.
(§5) Cultures were exposed to graded concentrations of tolytoxin and reincubated for 72 hours in the presence of tolytoxin. Three dishes were used for each treatment. Cell numbers were determined by hemacytometer counts. The IC50 for each cell line was determined by plotting the logarithm of the tolytoxin concentration versus growth (cell number as a percentage of the control) of the treated cells.
(§6) The other new scytophycin compounds are also potent cytotoxins. For example, the IC50 of the scytophycins against KB human epidermoid carcinoma, LoVo human adenocarcinoma, and L1210 murine leukemia were determined using the cell proliferation assay described for tolytoxin.

[6] = test system: KB human epidermoid carcinoma cells; assay: Cell proliferation assay (cell counts), KB; assay type: cell-based; settings: Table 6, KB, read-out: IC50 KB
Protocol: as §3, §4, §5, §6

[7] = test system: L1210 murine leukemia cells; assay: Cell proliferation assay (cell counts), L1210; assay type: cell-based; settings: Mus musculus; Table 6; L1210; read-out: IC50 L1210
Protocol: as §3, §4, §5, §6

actin microfilaments = settings: by binding to the end unit of growing actin microfilaments; cited from earlier work
cellular sugar uptake = settings: side effect; cited from earlier work
Penicillium notatum = assay: Antifungal agar dilution; assay type: cell-based; settings: Table 8; Penicillium notatum; 48 hours
Protocol: as §1

[8] = test system: Trichophyton mentagrophytes A23; assay: Antifungal agar dilution; assay type: cell-based; settings: Table 8; Trichophyton mentagrophytes A23; 48 hours
Protocol: as §1

Rhizoctonia solani 1165 = assay: Antifungal agar dilution; assay type: cell-based; settings: Table 8; Rhizoctonia solani 1165; 48 hours
Protocol: as §1

Aspergillus oryzae = assay: Antifungal agar dilution; assay type: cell-based; settings: Table 8, 48 hours
Protocol: as §1

[9] = test system: Phyllosticta capitalensis 689-5; assay: Antifungal agar dilution; assay type: cell-based; settings: Table 8; Phyllosticta capitalensis 689-5; 48 hours
Protocol: as §1

[10] = test system: Calonectria critalarae 1809; assay: Antifungal agar dilution; assay type: cell-based; settings: Table 8; Calonectria critalarae 1809; 48 hours
Protocol: as §1

[11] = test system: Colletotrichum coccodes 1809; assay: Antifungal agar dilution; assay type: cell-based; settings: Table 8; Colletotrichum coccodes 1809; 48 hours
Protocol: as §1

[12] = test system: Alternaria alternata 1715; assay: Antifungal agar dilution; assay type: cell-based; settings: Table 8; Alternaria alternata 1715; 48 hours
Protocol: as §1

Bipolaris incurvata 2118 = assay: Antifungal agar dilution; assay type: cell-based; settings: Table 8; Bipolaris incurvata 2118; 48 hours
Protocol: as §1

[13] = Table 9, Candida albicans A26, read-out: IC50

In the case of `COC1CC2C=CCC(CC(OC)C(CO)C(OC)CC(OC)C(C)C(C(C)C(O)C(C)CCC(=O)C(C)C(OC)C(C)/C=C/N(C)C=O)OC(=O)/C=C/C(C)=C/C1O)O2` (centres unmarked) [6-Hydroxy-7-O-methylscytophycin E, 6-hydroxy-7-O-methylscytophycin E], the IC50 [1] is reported as 300 nM, the Fold-Resistance [1] is reported as 3 and the IC50 (Saccharomyces cerevisae) is reported as 64 nM. The IC50 [2] was 32 nM, the MIC (Candida albicans A26; [13]) was 64 nM (≈ 54.5 ng/mL) and the MIC (Sclerotium rofsii 2133; Table 9, read-out: IC50) was 16 nM (≈ 13.6 ng/mL). It also gave an MIC ([3]; Table 9, read-out: IC50) of 16 nM (≈ 13.6 ng/mL), an IC50 [4] of 100 nM and an IC50 [5] of 8 nM. For the same compound, the IC50 [6] was 12 nM and the IC50 [7] was 6.6 nM.
Compound `COC1CC(OC)C2(CO2)C(OC)CC2CC=CC(CC(O)C(O)/C=C(C)/C=C/C(=O)OC(C(C)C(O)C(C)CCC(=O)C(C)C(OC)C(C)/C=C/N(C)C=O)C1C)O2` (centres unmarked) [6-Hydroxyscytophycin B] has an IC50 [1] of 150 nM, a Fold-Resistance [1] of 3 and an IC50 (Saccharomyces cerevisae) of 100 nM. For the same compound, the IC50 [2] was 32 nM, the MIC (Candida albicans A26; [13]) was 200 nM (≈ 167 ng/mL) and the MIC (Sclerotium rofsii 2133; Table 9, read-out: IC50) was 16 nM (≈ 13.4 ng/mL). For the same compound, the MIC ([3]; Table 9, read-out: IC50) was 64 nM (≈ 53.5 ng/mL), the IC50 [4] was 50 nM and the IC50 [5] was 8.2 nM. The IC50 [6] was 3.6 nM and the IC50 [7] was 11 nM.
Work on `COC1CC2CC=CC(CC(O)C/C=C(C)/C=C/C(=O)OC(C(C)C(O)C(C)CCC(=O)C(C)C(OC)C(C)/C=C/N(C)C=O)C(C)C(O)CC(OC)C1C)O2` (centres unmarked) [19-O-demethylscytophycin C] yielded an IC50 [1] of 25 nM, a Fold-Resistance [1] of 1 and an IC50 (Saccharomyces cerevisae) of 64 nM. For the same compound, the IC50 [2] was 16 nM, the MIC (Candida albicans A26; [13]) was 128 nM (≈ 101 ng/mL) and the MIC (Sclerotium rofsii 2133; Table 9, read-out: IC50) was 4 nM (≈ 3.17 ng/mL). The MIC ([3]; Table 9, read-out: IC50) was 8 nM (≈ 6.34 ng/mL), the IC50 [4] was 25 nM and the IC50 [5] was 2.9 nM. For the same compound, the IC50 [6] was 9.2 nM and the IC50 [7] was 12.5 nM.
In the case of `COc1cccc2c1C(=O)c1c(O)c3c(c(O)c1C2=O)C[C@@](O)(C(=O)CO)C[C@@H]3O[C@H]1C[C@H](N)[C@H](O)[C@H](C)O1` [Adriamycin], the IC50 [1] is reported as greater than 100000 nM, the “resistance of the multi-drug resistant cell line” value [1] is reported as “resistant” and the Fold-Resistance [1] is reported as greater than 250. For the same compound, the IC50 [4] was 400 nM.
In the case of `C=C1C(C)C2C(Cc3ccccc3)NC(=O)C23OC(=O)C=CC(O)CCCC(C)CC=CC3C1O` (centres unmarked) [Cytochalasin B], the microfilament formation (actin microfilaments) is listed as “inhibit microfilament formation”, the cellular sugar uptake (cellular sugar uptake) is listed as “inhibits cellular sugar uptake” and the IC50 [1] is listed as 30000 nM. The Fold-Resistance [1] was 6 and the IC50 [4] was 5000 nM.
`C[C@@H]1[C@H](O)[C@@H](C)/C=C/C=C/CC/C=C/C=C/C=C/C=C/C(O[C@H]2O[C@H](C)[C@@H](O)[C@H](N)[C@@H]2O)CC2O[C@](O)(CC(O)C(O)CCC(O)CC(O)CC(O)CC(=O)O[C@H]1C)CC(O)C2C(=O)O` (some centres unmarked) [Nystatin, reference compound] showed an MIC (Penicillium notatum) of 0.125 nM (≈ 0.116 ng/mL), an MIC [8] of 0.5 nM (≈ 0.463 ng/mL) and an MIC (Rhizoctonia solani 1165) of 0.0625 nM (≈ 0.0579 ng/mL). It also gave an MIC (Aspergillus oryzae) of 0.5 nM (≈ 0.463 ng/mL), an MIC [9] of 0.125 nM (≈ 0.116 ng/mL) and an MIC [10] of 0.25 nM (≈ 0.232 ng/mL). It also gave an MIC [11] of 0.25 nM (≈ 0.232 ng/mL), an MIC [12] of 0.5 nM (≈ 0.463 ng/mL) and an MIC (Bipolaris incurvata 2118) of 0.25 nM (≈ 0.232 ng/mL). For the same compound, the MIC (Saccharomyces cerevisae; Table 8, 48 hours) was 1 nM (≈ 0.926 ng/mL), the MIC ([2]; Table 8, 48 hours) was 0.5 nM (≈ 0.463 ng/mL) and the MIC (Candida albicans A26; Table 8, Candids albicans A26, 48 hours) was 1 nM (≈ 0.926 ng/mL). The MIC (Sclerotium rofsii 2133; Table 8, 48 hours) was 0.125 nM (≈ 0.116 ng/mL) and the MIC ([3]; Table 8, 48 hours) was 1 nM (≈ 0.926 ng/mL).
For `CC[C@]1(O)C[C@@H]2CN(CCc3c([nH]c4ccccc34)[C@@](C(=O)OC)(c3cc4c(cc3OC)N(C)[C@H]3[C@@](O)(C(=O)OC)[C@H](OC(C)=O)[C@]5(CC)C=CCN6CC[C@]43[C@@H]65)C2)C1` [Vinblastine], the IC50 [1] was 10000 nM, the “resistance of the multi-drug resistant cell line” value [1] was “resistant” and the Fold-Resistance [1] was 10,000. For the same compound, the IC50 [4] was 1 nM.
For `Cc1c2oc3c(C)ccc(C(=O)N[C@@H]4C(=O)N[C@H](C(C)C)C(=O)N5CCC[C@H]5C(=O)N(C)CC(=O)N(C)[C@@H](C(C)C)C(=O)O[C@@H]4C)c3nc-2c(C(=O)N[C@@H]2C(=O)N[C@H](C(C)C)C(=O)N3CCC[C@H]3C(=O)N(C)CC(=O)N(C)[C@@H](C(C)C)C(=O)O[C@@H]2C)c(N)c1=O` [actinomycin D] (I: T[dV]P[Sar][NMeV] / II: T[dV]P[Sar][NMeV]; ester I:1-I:C, II:1-II:C; linker I:N-II:N via Actinocin(9to1)), the “resistance of the multi-drug resistant cell line” value [1] was “resistant”.
In the case of `COc1cc2c(c(OC)c1OC)-c1ccc(OC)c(=O)cc1[C@@H](NC(C)=O)CC2` [colchicine], the “resistance of the multi-drug resistant cell line” value [1] is reported as “resistant”.
